Source: patent US20090042942A1 (priority 2005, published 2009)

target: T1, human muscarinic acetylcholine M3 receptor (M3-ACh) (Homo sapiens, UniProt P20309); experiment: biochemical; format: binding
T1 construct: expressed in transfected cells; host or cells: CHO-KL (Chinese Hamster Ovary) cells, membranes
T1 sequence (P20309 whole entry): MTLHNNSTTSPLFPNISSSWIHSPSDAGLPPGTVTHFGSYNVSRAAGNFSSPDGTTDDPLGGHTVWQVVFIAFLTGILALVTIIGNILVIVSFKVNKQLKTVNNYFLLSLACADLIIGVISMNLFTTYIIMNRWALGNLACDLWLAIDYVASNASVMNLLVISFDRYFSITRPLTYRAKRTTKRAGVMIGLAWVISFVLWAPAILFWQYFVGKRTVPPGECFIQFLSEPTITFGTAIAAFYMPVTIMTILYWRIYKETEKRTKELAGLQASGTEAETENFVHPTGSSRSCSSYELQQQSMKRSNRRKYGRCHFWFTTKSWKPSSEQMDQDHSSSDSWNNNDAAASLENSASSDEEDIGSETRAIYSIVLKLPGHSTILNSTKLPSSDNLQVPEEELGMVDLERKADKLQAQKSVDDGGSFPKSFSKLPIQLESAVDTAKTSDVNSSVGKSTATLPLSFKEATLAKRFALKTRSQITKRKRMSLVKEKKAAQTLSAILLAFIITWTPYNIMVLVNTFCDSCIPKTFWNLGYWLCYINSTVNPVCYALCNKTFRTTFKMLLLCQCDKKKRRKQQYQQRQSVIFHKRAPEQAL

| Structure (SMILES) | IC50 [nM] |
| --- | --- |
| CN1CC[C@@H](OC(=O)[C@@](C)(c2ccccc2)C2CCCC2)C1 [Example 2a, (3R)-1-Methylpyrrolidin-3-yl (2R)-2-cyclopentyl-2-phenylpropanoate] | 7.94 |
| CN1CC[C@H](OC(=O)[C@](C)(c2ccccc2)C2CCCC2)C1 [Example 3c, (3S)-1-Methylpyrrolidin-3-yl (2S)-2-cyclopentyl-2-phenylpropanoate] | 3.16 |
| C[C@@](C(=O)O[C@@H]1CCC[N+](C)(C)C1)(c1ccccc1)C1CCCC1 [Example 5, (3R)-3-{[(2S)-2-Cyclopentyl-2-phenylpropanoyl]oxy}-1,1-dimethylpiperidinium iodide] | 1.26 |
| CN1CC[C@H](OC(=O)[C@@](C)(c2ccccc2)C2CCCC2)C1 [Example 1f, (3S)-1-Methylpyrrolidin-3-yl (2R)-2-cyclopentyl-2-phenylpropanoate] | 20 |
| CN1CC[C@@H](OC(=O)[C@](C)(c2ccccc2)C2CCCC2)C1 [Example 4a, (3R)-1-Methylpyrrolidin-3-yl (2S)-2-cyclopentyl-2-phenylpropanoate] | 0.794 |
| C[C@@](C(=O)O[C@H]1CCC[N+](C)(C)C1)(c1ccccc1)C1CCCC1 [Example 6, (3S)-3-{[(2S)-2-Cyclopentyl-2-phenylpropanoyl]oxy}-1,1-dimethylpiperidinium iodide] | 20 |
